Test results from the NIST ThermoML archive (doi:10.1021/je060271a).
Values joined by “and” are separate entries in the source; they are usually repeats but may differ in a detail not shown here. Identical values can stand only once.

Details: Liquid, Vibrating tube method

CCCCCCC(=O)OCC(COC(=O)CCCCCC)(COC(=O)CCCCCC)COC(=O)CCCCCC [pentaerythritol tetraheptanoate]
Details	mass density
303.15 K, 31425 kPa	989 kg/m3
303.15 K, 31458 kPa	989.1 kg/m3
303.15 K, 31487 kPa	989.1 kg/m3
303.15 K, 31515 kPa	989 kg/m3
303.15 K, 31543 kPa	989.1 kg/m3
303.15 K, 31577 kPa	989.1 kg/m3
303.15 K, 31605 kPa	989 kg/m3
303.15 K, 31639 kPa	989.1 kg/m3
303.15 K, 31667 kPa	989.1 kg/m3
303.15 K, 31696 kPa	989.1 kg/m3
303.15 K, 31724 kPa	989.2 kg/m3
303.15 K, 31759 kPa	989.2 kg/m3
303.15 K, 31788 kPa	989.2 kg/m3
303.15 K, 31817 kPa	989.3 kg/m3
303.15 K, 31846 kPa	989.3 kg/m3
303.15 K, 31880 kPa	989.3 kg/m3
303.15 K, 31909 kPa	989.3 kg/m3
303.15 K, 31938 kPa	989.3 kg/m3
303.15 K, 31973 kPa	989.4 kg/m3
303.15 K, 32002 kPa	989.3 kg/m3
303.15 K, 32036 kPa	989.4 kg/m3
303.15 K, 32065 kPa	989.4 kg/m3
303.15 K, 32094 kPa	989.3 kg/m3
303.15 K, 32128 kPa	989.5 kg/m3
303.15 K, 32158 kPa	989.4 kg/m3
303.15 K, 32186 kPa	989.4 kg/m3
303.15 K, 32221 kPa	989.4 kg/m3
303.15 K, 32250 kPa	989.5 kg/m3
303.15 K, 32280 kPa	989.5 kg/m3
303.15 K, 32316 kPa	989.5 kg/m3
303.15 K, 32345 kPa	989.5 kg/m3
303.15 K, 32375 kPa	989.4 kg/m3
303.15 K, 32405 kPa	989.5 kg/m3
303.15 K, 32440 kPa	989.6 kg/m3
303.15 K, 32470 kPa	989.6 kg/m3
303.15 K, 32500 kPa	989.5 kg/m3
303.15 K, 32536 kPa	989.7 kg/m3
303.15 K, 32566 kPa	989.6 kg/m3
303.15 K, 32602 kPa	989.7 kg/m3
303.15 K, 32632 kPa	989.6 kg/m3
303.15 K, 32661 kPa	989.6 kg/m3
303.15 K, 32691 kPa	989.7 kg/m3
303.15 K, 32727 kPa	989.7 kg/m3
303.15 K, 32757 kPa	989.6 kg/m3
303.15 K, 32787 kPa	989.8 kg/m3
303.15 K, 32824 kPa	989.8 kg/m3
303.15 K, 32854 kPa	989.8 kg/m3
303.15 K, 32890 kPa	989.8 kg/m3
303.15 K, 32920 kPa	989.7 kg/m3
303.15 K, 32951 kPa	989.7 kg/m3
303.15 K, 32984 kPa	989.9 kg/m3
303.15 K, 33014 kPa	989.7 kg/m3
303.15 K, 33051 kPa	989.9 kg/m3
303.15 K, 33082 kPa	990 kg/m3
303.15 K, 33112 kPa	989.9 kg/m3
303.15 K, 33149 kPa	990 kg/m3
303.15 K, 33180 kPa	990 kg/m3
303.15 K, 33217 kPa	990 kg/m3
303.15 K, 33248 kPa	989.9 kg/m3
303.15 K, 33279 kPa	990.1 kg/m3
303.15 K, 33317 kPa	990 kg/m3
303.15 K, 33348 kPa	990 kg/m3
303.15 K, 33381 kPa	990 kg/m3
303.15 K, 33413 kPa	990 kg/m3
303.15 K, 33450 kPa	990.1 kg/m3
303.15 K, 33482 kPa	990 kg/m3
303.15 K, 33514 kPa	990.2 kg/m3
303.15 K, 33546 kPa	990.1 kg/m3
303.15 K, 33584 kPa	990.1 kg/m3
303.15 K, 33616 kPa	990.2 kg/m3
303.15 K, 33648 kPa	990.2 kg/m3
303.15 K, 33686 kPa	990.2 kg/m3
303.15 K, 33718 kPa	990.2 kg/m3
303.15 K, 33756 kPa	990.2 kg/m3
303.15 K, 33788 kPa	990.2 kg/m3
303.15 K, 33820 kPa	990.3 kg/m3
303.15 K, 33852 kPa	990.3 kg/m3
303.15 K, 33890 kPa	990.4 kg/m3
303.15 K, 33921 kPa	990.4 kg/m3
303.15 K, 33952 kPa	990.5 kg/m3
303.15 K, 33993 kPa	990.4 kg/m3
303.15 K, 34038 kPa	990.4 kg/m3
303.15 K, 34093 kPa	990.4 kg/m3
303.15 K, 34123 kPa	990.4 kg/m3
303.15 K, 34208 kPa	990.5 kg/m3
303.15 K, 34249 kPa	990.5 kg/m3
303.15 K, 34280 kPa	990.6 kg/m3
303.15 K, 34305 kPa	990.5 kg/m3
303.15 K, 34336 kPa	990.6 kg/m3
303.15 K, 34363 kPa	990.5 kg/m3
303.15 K, 34390 kPa	990.7 kg/m3
303.15 K, 34423 kPa	990.6 kg/m3
303.15 K, 34452 kPa	990.7 kg/m3
303.15 K, 34482 kPa	990.6 kg/m3
303.15 K, 34512 kPa	990.7 kg/m3
303.15 K, 34545 kPa	990.6 kg/m3
303.15 K, 34553 kPa	990.8 kg/m3
303.15 K, 34554 kPa	990.7 kg/m3
303.15 K, 34556 kPa	990.7 kg/m3
323.14 K, 99.4 kPa	955.6 kg/m3 and 955.7 kg/m3
323.14 K, 99.5 kPa	955.7 kg/m3 and 955.6 kg/m3
323.14 K, 99.7 kPa	955.7 kg/m3 [middle of 4 runs]
323.14 K, 99.9 kPa	955.7 kg/m3 [middle of 4 runs]
323.14 K, 100 kPa	955.7 kg/m3 and 955.8 kg/m3 and 955.6 kg/m3
323.14 K, 100.1 kPa	955.7 kg/m3
323.14 K, 100.2 kPa	955.6 kg/m3 and 955.7 kg/m3
323.14 K, 100.4 kPa	955.7 kg/m3
323.14 K, 101.1 kPa	955.6 kg/m3
323.14 K, 135.4 kPa	955.7 kg/m3
323.14 K, 135.5 kPa	955.7 kg/m3
323.14 K, 137.4 kPa	955.7 kg/m3
